According to patent US9920010B2, “CXCR7 receptor modulators” (IDORSIA PHARMACEUTICALS LTD, priority 2013, dated 2018):

Molecular target: T1, CXCR7 (Homo sapiens, UniProt P25106)
T1 construct: host or cells: CHO-K1 (PathHunter CHO-K1 CXCR7 b-arrestin cell line, stably transfected)
Assay: PathHunter CHO-K1 CXCR7 b-arrestin recruitment assay (CXCR7 agonistic activity)
Assay type: cell-based
Details: PathHunter CHO-K1 CXCR7 b-arrestin cell line
Procedure, shortened: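 Stable CHO-K1 line with C-terminally ProLink-tagged CXCR7 and β-arrestin 2–EA fusion; β-arrestin recruitment restores β-gal activity, read by chemiluminescence after 1 h RT detection. Cells seeded 24 h, starved in OPTIMEM 3–4 h, exposed to compounds 90 min at 37 °C in HBSS/HEPES/BSA. Geometric-mean EC50 from repeated measurements.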

T1 sequence (P25106 whole entry): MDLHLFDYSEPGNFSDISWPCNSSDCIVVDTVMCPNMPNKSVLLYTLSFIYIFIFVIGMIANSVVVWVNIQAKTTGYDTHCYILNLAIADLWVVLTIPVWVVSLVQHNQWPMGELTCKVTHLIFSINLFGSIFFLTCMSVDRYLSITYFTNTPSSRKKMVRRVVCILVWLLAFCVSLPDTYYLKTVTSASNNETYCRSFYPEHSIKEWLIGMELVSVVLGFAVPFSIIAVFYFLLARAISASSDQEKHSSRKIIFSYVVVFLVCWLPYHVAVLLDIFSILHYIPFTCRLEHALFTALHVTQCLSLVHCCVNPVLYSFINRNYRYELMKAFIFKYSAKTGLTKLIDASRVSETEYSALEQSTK
T1 sequence (P32121 whole entry partner): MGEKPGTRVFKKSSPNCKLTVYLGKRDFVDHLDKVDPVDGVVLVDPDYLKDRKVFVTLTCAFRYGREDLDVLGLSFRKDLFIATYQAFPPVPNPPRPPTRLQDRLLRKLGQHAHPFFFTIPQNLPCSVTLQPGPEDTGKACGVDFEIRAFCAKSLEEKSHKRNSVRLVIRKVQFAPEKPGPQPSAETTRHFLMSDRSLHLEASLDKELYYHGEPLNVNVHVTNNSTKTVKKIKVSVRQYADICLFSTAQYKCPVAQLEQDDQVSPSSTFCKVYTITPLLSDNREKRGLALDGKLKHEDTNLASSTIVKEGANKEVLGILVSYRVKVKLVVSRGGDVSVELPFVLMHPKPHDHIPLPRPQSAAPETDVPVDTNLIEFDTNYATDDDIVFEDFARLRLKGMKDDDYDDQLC

SMILES	EC50 [µM]
COCCN1CCc2c(/C=C/C(=O)N(CCN3CCC(F)(F)CC3)Cc3ncccc3C(F)(F)F)cccc2C1 [Example 322, (E)-N-[2-(4,4-Difluoro-piperidin-1-yl)-ethyl]-3-[2-(2-methoxy-ethyl)-1,2,3,4-tetrahydro-isoquinolin-5-yl]-N-(3-trifluoromethyl-pyridin-2-ylmethyl)-acrylamide]	0.119
CCN1CCc2cccc(NCC(=O)N(CCN(C)C)Cc3ncccc3C)c2C1 [compound 525, N-(2-Dimethylamino-ethyl)-2-(2-ethyl-1,2,3,4-tetrahydro-isoquinolin-8-ylamino)-N-(3-methyl-pyridin-2-ylmethyl)-acetamide]	0.041
CC(C)N(CCN(Cc1ccccc1C(F)(F)F)C(=O)CNc1cccc2c1CCN(CC1CC1)C2)C(C)C [Example 219, 2-(2-Cyclopropylmethyl-1,2,3,4-tetrahydro-isoquinolin-5-ylamino)-N-(2-diisopropylamino-ethyl)-N-(2-trifluoromethyl-benzyl)-acetamide]	0.003
CCN1CCc2c(cccc2NCC(=O)N(CCN(C)C)Cc2ccccc2C(F)(F)F)C1 [compound 135, N-(2-Dimethylamino-ethyl)-2-(2-ethyl-1,2,3,4-tetrahydro-isoquinolin-5-ylamino)-N-(2-trifluoromethyl-benzyl)-acetamide]	0.009
CNCCN(Cc1ncccc1C(F)(F)F)C(=O)CNc1cccc2c1CCN(C(=O)C(C)C)C2 [compound 412, 2-(2-Isobutyryl-1,2,3,4-tetrahydro-isoquinolin-5-ylamino)-N-(2-methylamino-ethyl)-N-(3-trifluoromethyl-pyridin-2-ylmethyl)-acetamide]	0.02
CN(C)CCN(Cc1ccccc1)C(=O)CNc1cccc2c1CCN(CCc1ccccc1)C2 [compound 126]	0.249
COCCN(Cc1ccccc1C(F)(F)F)C(=O)CNc1cccc2c1CCN(CC1CC1)C2 [Example 225, 2-(2-Cyclopropylmethyl-1,2,3,4-tetrahydro-isoquinolin-5-ylamino)-N-(2-methoxy-ethyl)-N-(2-trifluoromethyl-benzyl)-acetamide]	0.029
CCC(=O)N1CCc2c(cccc2NCC(=O)N(CCN(C)C)Cc2cccc(C)c2)C1 [Example 14, N-(2-Dimethylamino-ethyl)-N-(3-methyl-benzyl)-2-(2-propionyl-1,2,3,4-tetrahydro-isoquinolin-5-ylamino)-acetamide]	0.053
CC(C)CCN(Cc1ccccc1C(F)(F)F)C(=O)CNc1cccc2c1CCN(CC1CC1)C2 [Example 48, 2-(2-Cyclopropylmethyl-1,2,3,4-tetrahydro-isoquinolin-5-ylamino)-N-(3-methyl-butyl)-N-(2-trifluoromethyl-benzyl)-acetamide]	0.052
CN(C)CCN(Cc1ccccc1C(F)(F)F)C(=O)CNc1cccc2c1CCN(CC(F)(F)F)C2 [Example 86, N-(2-Dimethylamino-ethyl)-2-[2-(2,2,2-trifluoro-ethyl)-1,2,3,4-tetrahydro-isoquinolin-5-ylamino]-N-(2-trifluoromethyl-benzyl)-acetamide]	0.023
COCCN1CCc2c(/C=C/C(=O)N(CCN(C)C(=O)OC(C)(C)C)Cc3ccccc3C(F)(F)F)cccc2C1 [Example 319, {2-[{(E)-3-[2-(2-Methoxy-ethyl)-1,2,3,4-tetrahydro-isoquinolin-5-yl]-acryloyl}-(2-trifluoromethyl-benzyl)-amino]-ethyl}-methyl-carbamic acid tert-butyl ester]	0.443
CC(C)(O)CN(Cc1ncccc1Cl)C(=O)/C=C/c1cccc2c1CCN(CC1CC1)C2 [Example 329, (E)-N-(3-Chloro-pyridin-2-ylmethyl)-3-(2-cyclopropylmethyl-1,2,3,4-tetrahydro-isoquinolin-5-yl)-N-(2-hydroxy-2-methyl-propyl)-acrylamide]	0.023
COCCN1CCc2c(cccc2NCC(=O)N(CCC(C)(C)C)Cc2ncccc2C)C1 [Example 298, N-(3,3-Dimethyl-butyl)-2-[2-(2-methoxy-ethyl)-1,2,3,4-tetrahydro-isoquinolin-5-ylamino]-N-(3-methyl-pyridin-2-ylmethyl)-acetamide]	0.114
CN(CCN(Cc1ccccc1C(F)(F)F)C(=O)CNc1cccc2c1CCN(CC1CC1)C2)C1CCC1 [Example 447, N-[2-(Cyclobutyl-methyl-amino)-ethyl]-2-(2-cyclopropylmethyl-1,2,3,4-tetrahydro-isoquinolin-5-ylamino)-N-(2-trifluoromethyl-benzyl)-acetamide]	0.001
CCN1CCc2cccc(NCC(=O)N(CCN(C)C)Cc3ccc(OC)cc3)c2C1 [compound 499]	0.245
CN(C)CCN(Cc1ccccc1Cl)C(=O)CCc1cccc2c1CCN(C(=O)OC(C)(C)C)C2 [Example 98, 5-{2-[(2-Chloro-benzyl)-(2-dimethylamino-ethyl)-carbamoyl]-ethyl}-3,4-dihydro-1H-isoquinoline-2-carboxylic acid tert-butyl ester]	0.224

SMILES	EC50 [µM]
CCN1CCc2c(CCC(=O)N(CCN(C)C)Cc3ccccc3C(F)(F)F)cccc2C1 [compound 157, N-(2-Dimethylamino-ethyl)-3-(2-ethyl-1,2,3,4-tetrahydro-isoquinolin-5-yl)-N-(2-trifluoromethyl-benzyl)-propionamide]	0.009
CN(C)CCN(Cc1ccccc1)C(=O)CNc1cccc2c1CCN(C(=O)OCc1ccccc1)C2 [compound 131]	0.45
CCC(=O)N1CCc2c(cccc2NCC(=O)N(CCN(C)C)Cc2cccc(OC)c2)C1 [Example 29, N-(2-Dimethylamino-ethyl)-N-(3-methoxy-benzyl)-2-(2-propionyl-1,2,3,4-tetrahydro-isoquinolin-5-ylamino)-acetamide]	0.174
CC1Cc2c(cccc2NCC(=O)N(CCN(C)C)Cc2ccccc2C(F)(F)F)CN1CC1CC1 (racemic) [Example 212, rac-2-((2-(Cyclopropylmethyl)-3-methyl-1,2,3,4-tetrahydroisoquinolin-5-yl)amino)-N-(2-(dimethylamino)ethyl)-N-(2-(trifluoromethyl)benzyl)acetamide]	0.006
Cc1cccc(CN(C(=O)CNc2cccc3c2CCN(CC2CC2)C3)C2CC2)c1C [Example 69, N-Cyclopropyl-2-(2-cyclopropylmethyl-1,2,3,4-tetrahydro-isoquinolin-5-ylamino)-N-(2,3-dimethyl-benzyl)-acetamide]	0.418
CCC(=O)N1CCc2c(cccc2NCC(=O)N(CCN(C)C)Cc2ccc(OC)cc2)C1 [Example 30, N-(2-Dimethylamino-ethyl)-N-(4-methoxy-benzyl)-2-(2-propionyl-1,2,3,4-tetrahydro-isoquinolin-5-ylamino)-acetamide]	0.283
CN(C)CCN(Cc1ccccc1C(F)(F)F)C(=O)CNc1cccc2c1CN(C(=O)C(C)(C)C)CC2 [compound 551, N-(2-Dimethylamino-ethyl)-2-[2-(2,2-dimethyl-propionyl)-1,2,3,4-tetrahydro-isoquinolin-8-ylamino]-N-(2-trifluoromethyl-benzyl)-acetamide]	0.035
O=C(CNc1cccc2c1CCN(CC1CC1)C2)N(CCCN1CCCC1)Cc1ccccc1C(F)(F)F [Example 214, 2-(2-Cyclopropylmethyl-1,2,3,4-tetrahydro-isoquinolin-5-ylamino)-N-(3-pyrrolidin-1-yl-propyl)-N-(2-trifluoromethyl-benzyl)-acetamide]	0.003
COCCN1CCc2c(/C=C/C(=O)N(CCN(C)C)Cc3ncccc3Cl)cccc2C1 [Example 327, (E)-N-(3-Chloro-pyridin-2-ylmethyl)-N-(2-dimethylamino-ethyl)-3-[2-(2-methoxy-ethyl)-1,2,3,4-tetrahydro-isoquinolin-5-yl]-acrylamide]	0.02
O=C(/C=C/c1cccc2c1CCN(CC1CC1)C2)N(CCN1CCC(F)(F)CC1)Cc1ncccc1Cl [Example 334, (E)-N-(3-Chloro-pyridin-2-ylmethyl)-3-(2-cyclopropylmethyl-1,2,3,4-tetrahydro-isoquinolin-5-yl)-N-[2-(4,4-difluoro-piperidin-1-yl)-ethyl]-acrylamide]	0.013
CN(C)CCN(Cc1cccc(OC(F)(F)F)c1)C(=O)CNc1cccc2c1CCN(CC1CC1)C2 [Example 221, 2-(2-Cyclopropylmethyl-1,2,3,4-tetrahydro-isoquinolin-5-ylamino)-N-(2-dimethylamino-ethyl)-N-(3-trifluoromethoxy-benzyl)-acetamide]	0.009
CCNCCN(Cc1ccccc1C(F)(F)F)C(=O)CNc1cccc2c1CCN(CC1CC1)C2 [compound 439, 2-(2-Cyclopropylmethyl-1,2,3,4-tetrahydro-isoquinolin-5-ylamino)-N-(2-ethylamino-ethyl)-N-(2-trifluoromethyl-benzyl)-acetamide]	0.003
CC(C)(O)CN(Cc1ncccc1Cl)C(=O)/C=C/c1cccc2c1CCN(C(=O)[C@H]1C[C@H]1F)C2 (racemic) [Example 331, rac-(E)-N-(3-Chloro-pyridin-2-ylmethyl)-3-[2-((1R*,2R*)-2-fluoro-cyclopropanecarbonyl)-1,2,3,4-tetrahydro-isoquinolin-5-yl]-N-(2-hydroxy-2-methyl-propyl)-acrylamide]	0.314
CN(C)CCN(Cc1ccccc1C(F)(F)F)C(=O)CN(C)c1cccc2c1CCN(CC1CC1)C2 [Example 87, 2-[(2-Cyclopropylmethyl-1,2,3,4-tetrahydro-isoquinolin-5-yl)-methyl-amino]-N-(2-dimethylamino-ethyl)-N-(2-trifluoromethyl-benzyl)-acetamide]	0.003
COC(=O)N1CCc2c(cccc2NCC(=O)N(CCN(C)C)Cc2ccccc2)C1 [Example 113, 5-({[Benzyl-(2-dimethylamino-ethyl)-carbamoyl]-methyl}-amino)-3,4-dihydro-1H-isoquinoline-2-carboxylic acid methyl ester]	0.026
